The subject of one data set is articular cartilage. Nature of the data set: electron microscopy of articular cartilage of arthritic rats. Type of data set: in vivo, rat. As for the experimental part:
The synovium of rats from each group was examined by electron microscopy. Rats in each group were selected on Day 5 and Day 18 post arthritis onset to study joint morphology. Scanning and Transmission electron microscopy was performed on selected glutaraldehyde fixed joints. One ankle joint of each arthritic control and BMOV-treated rat was removed, critical point dried, and gold sputter-coated for scanning electron microscopy on Day 18 post arthritis onset to examine the trochlear surfaces. Conventional transmission electron microscopy was also performed on the articular cartilage of the trochlear surfaces of naive, arthritic control, and BMOV-treated animals using a Jeol 1200EX.

Data set [1] in a line: body weights of mice, BMOV solution and beads (Example 19). Type of data set: in vivo. The protocol: On day 6 the mice were divided into 6 groups as follows: group 1, empty control; group 3, tumor control; group 3, injected subcutaneously with 0.25 mg/100μl BMOV, twice a day; group 4, injected IP with 20 mg palla beads containing 5 mg of BMOV; group 5, injected IP with 10 mg of BMOV beads on day 6 and day 9 respectively and; group 6, injected intramuscularly with 10 mg of BMOV beads on day 6 and day 9. On day 16, the mice were sacrificed and tumors were dissected.
The body weights of mice in control and treated groups, and the tumor weights from control and treated mice, are shown in Tables 5 and 6 respectively.

Data set [2] in a line: tolerability of BMOV and NAC in arthritic rats. Type of data set: in vivo. As for the experimental part: Rats with definite arthritis on Day 10 post immunization were randomized into two groups. Control rats (n=8) received only NAC at a dose of 100 mg/kg/day s.c. NAC was prepared as a 3% aqueous solution. The experimental group (n=9) received NAC at 100 mg/kg/day s.c., as well as BMOV subcutaneously at 10 mg/kg/day. BMOV was solubilized in a 5% dextrose solution at 50° C.

For data set [3], the system named is non-proliferating chondrocytes. Briefly: viability of non-proliferating chondrocytes (high cell density). Type of data set: cell-based. The following applies: 0-50 μM, 48 hours. As for the experimental part: In order to compare the effect of orthovanadate on non-proliferating and proliferating chondrocytes, chondrocytes were plated at both high cell density (2×10^6 to 4×10^6 cells/per well on a six well plate) (nonproliferating) and at a lower cell density (5×10^5 to 1×10^6 cells/per well on a six well plate) (proliferating) and then maintained for 48 hours. The cells were then incubated in media (HAMS F12) containing 0-50 μM Orthovanadate for an additional 48 hours. The cells were harvested and the number of viable cells determined.

The test system of the next data set is MDAY-D2 tumor. Nature of the data set: MDAY-D2 tumor growth in vivo, orthovanadate s.c. (Example 6A). Also on record: species or system mice. The following applies: 10 mg/ml, 50 μl daily s.c., day 14. From the text:
In order to examine the ability of vanadyl compounds to reduce tumor formation, growth and metastases, a specific animal model which allows investigation of all of these processes in the same animal was chosen. This model involves the injection of a metastatic haematopoietic cell line, MDAY-D2, into mice subcutaneously. These cells form a tumor at the site of injection and its size can be easily determined. In addition, these cells metastasize to the liver and metastases can be detected histologically after day 17 to 19. This model provides a very sensitive and reproducible approach to investigate the effect of vanadyl compounds on tumor growth and metastases.
Using the animal model described above, the effect of subcutaneous administration of orthovanadate on tumor growth was investigated. A total of 15 mice were injected subcutaneously with 1×10^5 MDAY-D2 cells on Day 1. On Day 5, small tumors could be observed at the site of injection. Five mice were injected daily with 50 μl of water alone and 10 mice were injected daily with water containing 10 mg/ml orthovanadate. On day 14, the mice were sacrificed. The tumors were removed from all the animals, photographed, and weighed. FIG. 11 compares sizes of tumors from two untreated and two orthovanadate treated mice. […] In animals treated with water alone, four mice had tumors weighing between 1.18 and 1.68 gms.

A short description of data set [4]: toxicity of orthovanadate by route of administration. Type of data set: in vivo, mice. From the text: However, subcutaneous injections of up to 500 μgms orthovanadate is tolerated by the animals. Slow administration of the orthovanadate would decrease toxicity and the animals may tolerate higher doses.
A further data set has as its system MCF7 (WT). Briefly: MTT cytotoxicity assay, MCF7 (WT). Conditions: MCF7 (WT), 72 hours; read-out: IC50 Value. Type of data set: cell-based, human. The protocol:
(§1) The relative cytotoxicity of various compounds on tumor cell lines was investigated as follows. Cytotoxicity was measured by the MTT microculture tetrazolium colorimetric assay for all cell lines. The relative cytotoxicity of Na3 VO4 and VOSO4 was investigated using the following tumor cell lines: P388(WT) murine leukemia, P388 (ADR) murine leukemia, Lewis murine lung, MCF7 (WT) human breast, […] human lung, K562 human erythroleukemia, A431 human epidermal, LS180 human colon and SK-OV-3 human ovarian. The relative cytotoxicity of doxorubicin, Na3 VO4 and VOSO4 was investigated using the following tumor cell lines: P388(WT) murine leukemia, P388 (ADR) murine leukemia, MCF7(WT) human breast and MCF7 (ADR) human breast. The relative cytotoxicity of BMOV, BEOV and naglivan was investigated using the following tumor cell lines: P388(WT) murine leukemia, P388 (ADR) murine leukemia, Lewis murine lung, H460 human lung, K562 human erythroleukemia, and SK-OV-3 human ovarian.
The cells were plated (number of cells/well was different from cell line to cell depending on the dividing rate) in a 96-well microculture plate 24 hours prior to the delivery of the vanadium compounds. Serial concentrations of solutions of the test compounds (0.05-100 μM) were delivered to the corresponding wells. A blank column (without cells) and a control column (with cells without vanadium) were left. The cells were incubated for 72 hours continuously. An MTT solution was added to each well after this incubation period and the cells were incubated for 4 more hours for the completion of the dyeing process. The medium was removed find DMSO was added to each well. The absorbance of each well was read with a Titertek Multiskan (310C) spectrophotometer at 570 nm. The percentage of the absorbance of each vanadium concentration relative to the control calculated and the value of the 50% growth inhibition concentration (IC50) was obtained from the % control versus concentration plot. Each assay was repeated three times and the reported IC50 values were the mean of these three runs.

Another data set relates to A431. Nature of the data set: MTT cytotoxicity assay, A431. Type of data set: cell-based, human. Conditions: A431, 72 hours. The protocol:
as §1
The cells were plated (number of cells/well was different from cell line to cell depending on the dividing rate) in a 96-well microculture plate 24 hours prior to the delivery of the vanadium compounds. Serial concentrations of solutions of the test compounds (0.05-100 μM) were delivered to the corresponding wells. […] The absorbance of each well was read with a Titertek Multiskan (310C) spectrophotometer at 570 nm. […]

Several values for one entry are separate records, joined by “and”; a condition that tells them apart may be missing. Equal values may be shown once.

On to `Cc1occc(=O)c1[O-].Cc1occc(=O)c1[O-].[O]=[V+2]` [BMOV, bis(methylmaltolato) oxovanadium (IV)], for which, in the data set with articular cartilage (Day 18), the “trochlear surface by scanning electron micrograph” value is “normal trochlear surface”. In the data set on articular cartilage (rat, in vivo), the “articular cartilage by transmission electron micrograph” value is given as “indistinguishable from the naive animal”. In the data set with articular cartilage (scanning and transmission electron micrographs), the “cartilage damage of joints” value was “little cartilage damage and intact cartilage”. In addition, the “Body weight, Average” value in data set [1] (BMOV solution 0.25 mg × 1) is 17.87. Further, in data set [1] (BMOV solution 0.25 mg × 1, individual mice), the Body weight is 18.8 and 17.8 and 18.4 and 17.3. Further, the diarrhea entry in data set [2] (BMOV 10 mg/kg/day) is “not observed”; in data set [2] (BMOV 15 mg/kg/day from Day 11), “minor diarrhea”.
For the compound `[Na+].[Na+].[Na+].[O]=[V]([O-])([O-])[O-]` [orthovanadate, sodium orthovanadate], the “effect on chondrocytes plated at high cell density” value in data set [3] is “did not effect”. Further, in the data set on MDAY-D2 tumor, the detectable tumors is reported as 2 mice did not have detectable tumors. In addition, the tumor size entry in the data set with MDAY-D2 tumor (five mice) is recorded as “less than 0.16 gms”. Also, in data set [4] (0.5 mg/ml oral), the “toxicity, oral administration” value is recorded as “gastric toxicity”. In addition, the “toxicity, intraperitoneal administration” value in data set [4] (high doses i.p.) is recorded as “toxic to the animals”. For the same compound, the tolerated subcutaneous injection entry in data set [4] (subcutaneous) is “up to 500 μgms”. Further, the values for the IC50 in the data set with MCF7 (WT) and with A431 were 8.5 µM and 7.6 µM, respectively.

Source of the values: US5871779A, “Treatment of arthropathies with vanadate compounds or analogues thereof” (Mount Sinai Hospital Corporation, priority 1996, dated 1999).
